# From US20230233544A1, “T-TYPE CALCIUM CHANNEL ENHANCER FOR TREATING TAF1 ASSOCIATED NEUROLOGICAL DEFECTS” (ARIZONA BOARD OF REGENTS ON BEHALF OF THE UNIVERSITY OF …, priority 2020, published 2023)
# What was measured:
# TAF1-edited animals = tested on: TAF1-edited animals
# Method: (§1) After weaning, the rat pups were separated from the dams and maintained 4 per cage. Animals were divided into six groups. […] Rats were sacrificed at PD35. Animals were behaviorally assessed before being euthanized for histological and protein expression analysis. All biochemical, electrophysiology, and behavior experiments were performed in a blinded fashion. Animal protocols were approved by the Institutional Animal Care and Use Committee of the College of Medicine at the University of Arizona and conducted in accordance with the Guide for Care and Use of Laboratory Animals published by the National Institutes of Health.
# (§2) Intracerebroventricular injections: Bilateral intracerebroventricular (ICV) injections were performed as previously described in Sprague-Dawley (SD) rat pups on postnatal day 3. Briefly, newborn SD rat puts were anesthetized by isoflurane. A 10 μl syringe (Hamilton Gastight Syringe, #1701) was used to pierce the skull (coordinates from bregma: −0.6 mm posterior, ±1.75 mm lateral/medial, and −2.5 mm ventral), and 2.5 μl of CRISPR lentivirus (gRNA-control or gRNA-TAF1) was injected into each cerebral ventricle without opening the scalp. Neonatal rat pups were kept with the dam until weaned.
# cerebral cortex neurons = conditions: TAF1-edited animals
# Method: as §1, §2
# cerebral cortex = conditions: TAF1 edited animals; SAK3 0.25 mg/kg p.o.
# Method: as §1, §2
# [1] = tested on: AKT (phosphorylated at Ser 473); conditions: cortex of TAF-1 edited animals; SAK3 0.25 mg/kg p.o.
# Method: as §1, §2
# (§3) Rats (n=6 animals per experimental condition) were perfused with saline, and 4% formaldehyde in phosphate buffer saline (PBS) at PD 35, and the brains were extracted and post-fixed in 4% paraformaldehyde for 8 hours at 4° C. Cerebral cortex sections were cut sagittally at 20 μm using a cryostat (Microm HM 505 E). After rinsing the sections in PBS for 5 min, the sections were incubated with a 0.1% H2O2 solution in PBS for 5 min, rinsed in PBS for 5 times for 5 min, and incubated for 30 min with 0.4% Triton X-100, rinsed in PBS and blocked with 8% goat serum and 1% Triton X-100 in PBS. After blocking, the sections were incubated at 4° C. overnight with the indicated antibodies diluted in 4% goat serum in PBS. The sections were washed in 1% goat serum in PBS, incubated with secondary antibody anti-rabbit Alexa fluor 488 (Life Technologies) or anti-mouse Alexa fluor 488 (Life Technologies), as needed, in 4% goat serum for 2 h, washed with PBS 3 times for 5 mins, and incubated with DAPI (Catalogue No: D1306, Thermofisher Scientific) at a concentration of 50 ng/ml for 2 mins. Sections were then washed and further air dried, and coverslip with glycerol.
# BDNF [2] = conditions: TAF1 edited animals; SAK3 0.25 mg/kg p.o.
# Method: as §1, §2, §3
# CaV3.1 T-type channel = conditions: TAF-1 edited animals; SAK3 0.25 mg/kg p.o.
# Method: as §1, §2, §3
# GFAP-positive astrocytes = conditions: TAF1-edited animals; SAK3 0.25 mg/kg p.o.; vs TAF1 edited group
# Method: as §1, §2, §3
# Iba1-positive microglia = conditions: TAF1-edited animals; SAK3 0.25 mg/kg p.o.; vs TAF1 edited group
# Method: as §1, §2, §3
# [3] = tested on: gRNA-TAF1 edited Purkinje cells; conditions: gRNA-TAF1 edited Purkinje cells in cerebellar slices
# Method: as §2
# [4] = tested on: B-cell lymphoma 2 (BcI-2); conditions: TAF1 edited animals; SAK3 0.25 mg/kg p.o.; Western
# Method: as §1, §2
# (§4) Western blotting analysis: After decapitation of animals, brain tissue from the cerebellum was dissected, snap frozen in liquid nitrogen prior to storage at −80° C. until analysis. Western blot analyses were performed as described in Janakiraman et al (Janakiraman, U., Yu, J., Moutal, A., Chinnasamy, D., Boinon, L., Batchelor, S. N., Anandhan, A., Khanna, R., and Nelson, M. A. (2019) TAF1-gene editing alters the morphology and function of the cerebellum and cerebral cortex. Neurobiol Dis 132, 104539). In brief, frozen samples were homogenized with a RIPA buffer and centrifuged at 4 °C, 20,000xg for 20 min. Supernatant protein concentrations were determined using BCA method (Catalog No: #23227, Thermo Scientific), and samples were then boiled 5 min in Laemmli's sample buffer (Catalog No: NP0008, Life Technologies). Equal amounts of protein were loaded onto and run on SDS-polyacrylamide gels (Catalog No: #4568084, Bio-Rad) and then transferred to polyvinylidene difluoride membrane (Catalog No: #1620177, Bio-Rad). After transfer, membranes were blocked with TBST solution (50 mM Tris-HCl, pH 7.5, 150 mM NaCl, and 0.1% Tween 20) containing 5% non-fat dry milk at 4 °C for 1 hour. After blocking membranes were incubated overnight at 4° C. with anti-CaMKII (pan) (1:500; Cell Signaling), anti-phospho-CaMKII (Thr-286) (1:1000; Cell Signaling), anti-cleaved caspase-3 (Asp175) (1:1000; Cell Signaling), anti-Bax (1:1000; Cell Signaling) anti-Bcl-2 (1:1000; Abcam), anti-phospho-GSK3p(Ser9) (1:1000; Cell Signaling), anti-GSK3p (1:1000; Cell Signaling), anti-BDNF (1:750; Abcam), anti-Foxp2 (1:1000; Abcam), anti-CRMP2 pThr509/Thr514 (1:1000; Kina Source Limited), anti-CRMP2 (1:1000; Sigma), and 6111-Tubulin (1:1000; Promega) in 3% BSA.
# BCL2 Associated X (BAX) = conditions: TAF1 edited animals; SAK3 0.25 mg/kg p.o.; Western
# Method: as §1, §2, §4
# BDNF [5] = conditions: TAF1 edited animals; cerebral cortex samples; SAK3 0.25 mg/kg p.o.
# Method: as §1, §2, §4
# FOXP2 = conditions: TAF1-edited animals; SAK3 0.25 mg/kg p.o.
# Method: as §1, §2, §4
# Phospho (Ser 9)-GSK3β = conditions: SAK3 0.25 mg/kg p.o.
# Method: as §1, §2, §4
# cleaved caspase 3 = conditions: TAF1 edited animals; SAK3 0.25 mg/kg p.o.; Western
# Method: as §1, §2, §4
# p-CaMKII = conditions: cerebellum of TAF1 edited animals; SAK3 0.25 mg/kg p.o.
# Method: as §1, §2, §4
# [6] = tested on: phospho-CRMP2 (Thr 509/514); conditions: TAF1 edited animals; SAK3 0.25 mg/kg p.o.
# Method: as §1, §2, §4
# [7] = tested on: TAF1 Intellectual Disability Syndrome
# Text: A child is brought by their parent to see their pediatrician for a routine childhood check-up. During the check-up, the pediatrician notices some minor motor deficits in the child. The pediatrician communicates their concerns about the child to their parent. […] A week later, the child is taken in for genetic testing. A month later, the child is brought back to the pediatrician's office so that the pediatrician may discuss the genetic testing results with their parents.
# [8] = SAK3 0.25 mg/kg p.o. PD21 to PD35, vs TAF1-edited animals
smiles,measurement,setting,value
"CCOC(=O)C1=C(N2CCCCC2)C2(CC1=O)C(=O)N=C1C(C)=CC=CN12 (stereo not drawn) [SAK3, ethyl 8′-methyl-2′, 4-dioxo-2-(piperidin-1-yl)-2′H-spiro [cyclopent[2]ene-1,3′-imidazo[1,2-a]pyridine]-3-carboxylate]",Grooming frequency (number of groomings),"TAF1-edited animals; SAK3 0.25 mg/kg p.o. PD21 to PD35, open field 5 min",blunted by SAK3 treatment
same,Beam crossing time,TAF1-edited animals; [8],rescue of the beam crossing time
same,Number of foot slip errors,TAF1-edited animals; [8],rescue of the beam crossing time and foot slip errors
same,Morphology of the cells in the cortex (Nissl staining),cerebral cortex neurons; SAK3 0.25 mg/kg p.o. PD21 to PD35,improved the morphology of the cells in the cortex
same,Number of viable cells in the cerebral cortex,"cerebral cortex neurons; SAK3 0.25 mg/kg p.o., vs TAF1-edited animals",increased the number of viable cells
same,Number of TUNEL positive cells,cerebral cortex,reduced the number of TUNEL positive cells to control levels
same,Activated AKT (phosphorylated at Ser 473) expression,[1],prevented by SAK3 treatment
same,"BDNF expression (immunofluorescence, BDNF-positive cells)",BDNF [2],restored BDNF expression to the levels in Naïve and gRNA-control groups
same,CaV3.1 T-type channel expression,CaV3.1 T-type channel,restored by SAK3 treatment
same,Number of GFAP-positive cells,GFAP-positive astrocytes,increase the number of GFAP-positive cells
same,Number of Iba1-positive cells,Iba1-positive microglia,decrease the number of Iba1-positive cells
same,Amplitudes of sEPSC,[3]; SAK3 0.1 nM,No changes
same,Frequency of sEPSC,"[3]; SAK3 0.1 nM in perfusion, held at −70 mV, mean±S.E.M.",2.13±0.29 Hz
same,Bcl-2 level,[4],up-regulation of B-cell lymphoma 2 (BcI-2)
same,BAX level,BCL2 Associated X (BAX),downregulation of the pro-apoptotic factor BCL2 Associated X (BAX)
same,BDNF expression (Western analysis),BDNF [5],restored BDNF expression to the levels in Naïve and gRNA-control groups
same,FOXP2 levels,FOXP2,restored FOXP2
same,Phospho (Ser 9)-GSK3β levels,"Phospho (Ser 9)-GSK3β; TAF1 edited animals, cerebral cortex samples",increased phopho-GSK3β levels
same,p-GSK3β levels,"Phospho (Ser 9)-GSK3β; gRNA-TAF1 edited animals, cerebellum samples",rescued by SAK3 treatment
same,Activated (cleaved) caspase 3 level,cleaved caspase 3,downregulation of activated caspase 3
same,CaMKII activation (phosphorylation at T286),p-CaMKII,restoration of CaMKII activation in the cerebellum of SAK3 treated animals was not observed
same,phospho-CRMP2 (Thr 509/514) levels,[6],restored phospho-CRMP2 levels
same,Motor skills and cognitive abilities,"[7]; child with TAF1 ID syndrome, SAK3 composition orally, after six months",improved motor skills and cognitive abilities
same,Side effects,"[7]; in vivo, po",No side effects reported
